For one data set, the system named is C. albicans (ATCC 90028). The data set can be described thus: Microdilution susceptibility assay (MIC). Type of data set: cell-based. The settings on record: Candida albicans, ATCC90028. As for the experimental part: (§1) Compounds 1–10 were screened for their antimicrobial activity against gram-negative bacteria, gram-positive bacteria, and yeasts, listed in Table 1. Bacteria were grown in Mueller-Hinton Broth and yeasts were grown in Sabouraud Dextrose Broth (SDB) during experiments. Overnight cultures were prepared routinely by subculturing of stock culture onto Mueller-Hinton Agar for bacteria and Sabouraud Dextrose Agar for yeasts.
(§2) Microdilution susceptibility assay was used for the determination of antibacterial and anticandidal efficacy of compounds 1–10. Chloramphenicol and ketoconazole were used as positive controls for bacteria and yeasts, respectively. All experiments were designed according to the Clinical Laboratory Standards Institute (CLSI). All chemicals were dissolved in dimethyl sulfoxide (DMSO) to obtain stock solution (10 mg/mL). Two-fold serial dilutions (800, 400, 200...0.78 µg/mL) of the compounds were prepared from stock solutions with dH2O. 100 µL of each solution was transferred to 96-well microtiter plates and 100 µL of 10^6 CFU/mL of bacteria and 2 × 10^3 of CFU/mL yeast were added to related wells. As negative controls, wells including microorganisms without agents and wells including agents without microorganisms were used. The plates were kept at 35 °C for 18–20 h and the growth was determined with resazurin (20 mg/mL). Assays were carried out in triplicate.
In general terms: In broth dilution the organism is exposed to a series of concentrations in liquid medium.

The test system of another data set is E. coli (ATCC 25922). Kind of data set: Microdilution susceptibility assay (MIC). Type of data set: cell-based. As to conditions: Escherichia coli, ATCC25922. As to the method: as §1, §2
Data set [1] concerns E. faecalis (ATCC 29212). The data set can be described thus: Microdilution susceptibility assay (MIC). Type of data set: cell-based. As to conditions: Enterococcus faecalis, ATCC29212. As for the experimental part:
as §1, §2

Data set [2] concerns E. faecalis (ATCC 51299). Kind of data set: Microdilution susceptibility assay (MIC). The settings on record: Enterococcus faecalis, ATCC51299. Type of data set: cell-based. As for the experimental part: as §1, §2
Data set [3] relates to K. pneumoniae (ATCC 700603). The data set can be described thus: Microdilution susceptibility assay (MIC). The data set is classed as cell-based. The settings on record: Klebsiella pneumoniae, ATCC700603. As for the experimental part:
as §1, §2

The next data set deals with S. aureus (ATCC 25923). The data set can be described thus: Microdilution susceptibility assay (MIC). Type of data set: cell-based. The settings on record: Staphylococcus aureus, ATCC25923. As for the experimental part: as §1, §2
The subject of the next data set is C. glabrata (ATCC 90030). The data set can be described thus: Microdilution susceptibility assay (MIC). The data set is classed as cell-based, Candida glabrata. As to conditions: Nakaseomyces glabratus, ATCC90030. As for the experimental part: as §1, §2
The subject of data set [4] is C. parapsilosis (ATCC 22019). The data set can be described thus: Microdilution susceptibility assay (MIC). The data set is classed as cell-based, Candida parapsilosis. As to conditions: Lodderomyces parapsilosis, ATCC22019. As to the method:
as §1, §2

The next data set relates to C. krusei (ATCC 6258). Kind of data set: Microdilution susceptibility assay (MIC). The data set is classed as cell-based, Candida krusei. The settings on record: Pichia kudriavzevii, ATCC6258. As for the experimental part:
as §1, §2

The subject of data set [5] is E. faecalis (ATCC 29212). Kind of data set: ATP luminescence microbial cell viability assay. Type of data set: cell-based, Enterococcus faecalis. As to conditions: 24 h treatment, result in words. As to the method:
(§3) A model from BioTek Instruments Inc. combined with a BacTiter-Glo^TM Microbial Cell Viability assay (Promega Corp., Madison, WI, USA) was used to provide a sensitive and rapid method for determining the number of viable microbial cells in culture based on quantitation of the ATP present. […] After incubation, cultures were added into the wells (final concentration of bacteria was 5 × 10^5 CFU/mL and 2.5 × 10^6 CFU/mL for yeasts). After adding the BacTiter reagent, incubation time for bacteria and yeasts was 5 min and 15 min, respectively.
(§4) The assay generates a “glow-type” luminescent signal, produced by the luciferase reaction. Briefly, after chemicals and strains were incubated for 24 h, 100 µL of the culture was taken from each well and mixed with the same volume of the BacTiter-Glo™ reagent in a white, opaque-walled microtiter plate. Control wells containing medium without cells were prepared to obtain a value for background luminescence. Cells without compound were used as an ATP-positive control. The microplates were further incubated under agitation for 7 min. Bioluminescence was recorded in a multi-detection microplate reader (BioTek Synergy 2 Multi-Mode Microplate Reader, BioTek Instruments, Winooski, VT, USA). In Figure 3, results were given as percentage of untreated control, which is set at 100%. Experiments were performed in triplicate and each sample was measured in four replicates.

Data set [6] deals with A549 human lung adenocarcinoma cell line. Kind of data set: MTT assay. The data set is classed as cell-based. The settings on record: Homo sapiens, A549. As for the experimental part:
(§5) The anticancer effects of compounds 1–10 on A549 human lung adenocarcinoma (ATCC® CCL-185™), HepG2 human hepatocellular carcinoma (ATCC® HB-8065™), and C6 rat glioma (ATCC® CCL107™) cell lines were assessed using 3-(4,5-Dimethylthiazol-2-yl)-2,5-diphenyltetrazolium bromide (MTT) assay, whereas the selectivity of compounds 1–10 was tested using NIH/3T3 mouse embryonic fibroblast cell line (ATCC® CRL-1658™, London, UK). All cell lines were incubated according to the supplier’s recommendations. The cells were seeded as 1 × 10^4 cells into each well of the 96-well plates. MTT assay was performed as previously described. The compounds were tested between the concentrations equal to 1 mM and 0.000316 mM (1.0, 0.316, 0.10, 0.0316, 0.01, 0.00316, 0.001, 0.000316 mM). Stock solutions of compounds were prepared in dimethyl sulfoxide (DMSO) and further dilutions were made with fresh culture medium. The final DMSO concentration was under 1% [34] and cisplatin was used as a positive control. Inhibition % was calculated for each concentration according to the formula below, and IC50 values were determined by plotting a dose–response curve of inhibition % versus compound concentrations tested. All experiments were performed in quadruplicate.Inhibition % = 100 − [(ODtest compound − ODblank/ODsolvent control − ODblank)] × 100(1)
On the technique in general: Formazan colour is commonly taken as a measure of viable cells.

Another data set deals with C6 rat glioma cell line. Kind of data set: MTT assay. Type of data set: cell-based. As to conditions: Rattus norvegicus, C6. As for the experimental part: as §5
In data set [7] the test system is HepG2 human hepatocellular carcinoma cell line. The data set can be described thus: MTT assay. As to conditions: Homo sapiens, HepG2. The data set is classed as cell-based. As to the method:
as §5

In data set [8] the test system is NIH/3T3 mouse embryonic fibroblast cell line. Kind of data set: MTT assay. Type of data set: cell-based. The settings on record: Mus musculus, NIH3T3, healthy cells for selectivity. As for the experimental part: as §5
In the next data set the test system is C. glabrata. Kind of data set: ATP luminescence microbial cell viability assay. The data set is classed as cell-based, Candida glabrata. As to conditions: 24 h treatment, result in words. As to the method:
as §3, §4

Data set [9] relates to E. faecalis (ATCC 51299). Kind of data set: ATP luminescence microbial cell viability assay. Type of data set: cell-based, Enterococcus faecalis. As to conditions: 24 h treatment, result in words. As to the method: as §3, §4

In brackets after ≈: the same amount, converted by molar mass.

Usually MIC stands for the lowest concentration that inhibits growth of the organism. A lower MIC goes with inhibition by little substance. One may read the IC50 as the point on the concentration scale where inhibition reaches its midpoint. By melting point is commonly meant the temperature, or range, at which the solid turns liquid. Take `Cn1cccc1C(=O)C=Cc1ccc(-c2ccc([N+](=O)[O-])cc2)o1` [Compound 1, 1-(1-Methyl-1H-pyrrol-2-yl)-3-(5-(4-nitrophenyl)furan-2-yl)prop-2-en-1-one]: the melting point was 179 to 181 °C. The same compound registered an MIC in the data set with C. albicans (ATCC 90028) of 100 µg/mL (≈ 310 µM). Moreover, 100 µg/mL (≈ 310 µM) was the least that counted as inhibitory against E. coli (ATCC 25922) (MIC). In the data set on E. faecalis (ATCC 29212) [1], this compound returned an MIC of 100 µg/mL (≈ 310 µM). The same compound had an MIC against E. faecalis (ATCC 51299) [2] of 200 µg/mL (≈ 621 µM). Further, the MIC in [3] stood at 200 µg/mL (≈ 621 µM). Also, inhibition of growth in the data set with S. aureus (ATCC 25923) (MIC) required 200 µg/mL (≈ 621 µM). This compound also returned an MIC in the data set with C. glabrata (ATCC 90030) of 200 µg/mL (≈ 621 µM). Moreover, inhibition of growth in data set [4] (MIC) required 100 µg/mL (≈ 310 µM). In addition, in the data set with C. krusei (ATCC 6258), it took 200 µg/mL (≈ 621 µM) to inhibit growth (MIC). In the data set on E. faecalis (ATCC 29212) [5], the “antimicrobial activity in ATP bioluminescence assay” value is reported as “sensitive”. In addition, the IC50 in data set [6] was determined as 0.3 µg/mL (≈ 0.931 µM). In addition, the IC50 with C6 rat glioma cell line was determined as 84 µg/mL (≈ 261 µM). In addition, 322 µg/mL (≈ 999 µM) corresponded to half-maximal inhibition in data set [7] (IC50). Further, the IC50 in [8] came out at 109 µg/mL (≈ 338 µM).

On to `Cn1cccc1C(=O)C=Cc1ccc(-c2ccc(Cl)cc2Cl)o1` [Compound 8, 1-(1-Methyl-1H-pyrrol-2-yl)-3-(5-(2,4-dichlorophenyl)furan-2-yl)prop-2-en-1-one], for which the melting point lay in the range of 98 to 99 °C. In the data set with C. albicans (ATCC 90028), this compound had an MIC of 200 µg/mL (≈ 578 µM). In the data set with E. coli (ATCC 25922), this compound gave an MIC of 100 µg/mL (≈ 289 µM). Inhibition of growth in the data set with E. faecalis (ATCC 29212) [1] (MIC) required 200 µg/mL (≈ 578 µM). Further, inhibition of growth against E. faecalis (ATCC 51299) [2] (MIC) required 400 µg/mL (≈ 1160 µM). The compound further returned a minimum inhibitory concentration (MIC) in data set [3] of 200 µg/mL (≈ 578 µM). Also, in the data set on S. aureus (ATCC 25923), the MIC was determined as 400 µg/mL (≈ 1160 µM). Also, the MIC in the data set on C. glabrata (ATCC 90030) was determined as 100 µg/mL (≈ 289 µM). The compound further showed an MIC in [4] of 100 µg/mL (≈ 289 µM). This compound had a minimal inhibitory concentration (MIC) against C. krusei (ATCC 6258) of 50 µg/mL (≈ 144 µM). The “antifungal activity in ATP bioluminescence assay” value in the data set with C. glabrata was “antifungal activity close to ketoconazole”. This compound also came in with an IC50 in data set [6] of 225 µg/mL (≈ 650 µM). This compound registered an IC50 in the data set on C6 rat glioma cell line of 90 µg/mL (≈ 260 µM). This compound also displayed an IC50 in [7] of 106 µg/mL (≈ 306 µM). The compound further had an IC50 in data set [8] of 277 µg/mL (≈ 800 µM).

The compound `Cn1cccc1C(=O)C=Cc1ccc(-c2ccc(Cl)c(Cl)c2)o1` [Compound 10, 1-(1-Methyl-1H-pyrrol-2-yl)-3-(5-(3,4-dichlorophenyl)furan-2-yl)prop-2-en-1-one] showed a melting point of 132 to 133 °C. Also, the MIC in the data set with C. albicans (ATCC 90028) was 100 µg/mL (≈ 289 µM). The same compound showed a minimal inhibitory concentration (MIC) in the data set on E. coli (ATCC 25922) of 100 µg/mL (≈ 289 µM). Besides, inhibition of growth with E. faecalis (ATCC 29212) [1] (MIC) required 400 µg/mL (≈ 1160 µM). This compound displayed an MIC with E. faecalis (ATCC 51299) [2] of 100 µg/mL (≈ 289 µM). This compound showed an MIC in [3] of 200 µg/mL (≈ 578 µM). The compound also had an MIC with S. aureus (ATCC 25923) of 200 µg/mL (≈ 578 µM). The same compound yielded an MIC in the data set on C. glabrata (ATCC 90030) of 200 µg/mL (≈ 578 µM). For the same compound, the MIC in data set [4] was found to be 100 µg/mL (≈ 289 µM). In addition, in the data set with C. krusei (ATCC 6258), inhibition of growth (MIC) required 200 µg/mL (≈ 578 µM). Also, in the data set with E. faecalis (ATCC 51299) [9], the “antimicrobial activity in ATP bioluminescence assay” value was “antimicrobial activity close to chloramphenicol”. Besides, half-maximal inhibition in [6] (IC50) required 346 µg/mL (≈ 999 µM). The compound also came in with an IC50 in the data set with C6 rat glioma cell line of 100 µg/mL (≈ 289 µM). Further, in data set [7], the IC50 came to 100 µg/mL (≈ 289 µM). This compound also displayed an IC50 in data set [8] of 148 µg/mL (≈ 427 µM).
